Test results taken from the NIST ThermoML archive (doi:10.1021/acs.jced.8b00662).
Numbers after ± are expanded uncertainties.

Assay: xn = mol fraction of the nth substance listed
Settings: 100 kPa, Liquid; for viscosity: Falling or rolling sphere viscometry; for mass density: Vibrating tube method

OCC1CC1 [cyclopropylmethanol] + c1ccc2c(c1)CCCC2
Settings | mass density [kg/m3] | viscosity [mPa·s]
293.15 K, x2 = 0 | 913.02 ± 1.1 | 3.988 ± 0.085
293.15 K, x2 = 0.0993 | 921.89 ± 1.1 | 3.498 ± 0.075
293.15 K, x2 = 0.1972 | 929.26 ± 1.1 | 3.134 ± 0.067
293.15 K, x2 = 0.3008 | 936.02 ± 1.1 | 2.837 ± 0.06
293.15 K, x2 = 0.3978 | 941.84 ± 1.1 | 2.622 ± 0.056
293.15 K, x2 = 0.4986 | 947.21 ± 1.1 | 2.449 ± 0.052
293.15 K, x2 = 0.6031 | 952.27 ± 1.1 | 2.318 ± 0.049
293.15 K, x2 = 0.7031 | 956.72 ± 1.1 | 2.229 ± 0.047
293.15 K, x2 = 0.7981 | 960.63 ± 1.1 | 2.182 ± 0.046
293.15 K, x2 = 0.901 | 964.72 ± 1.2 | 2.164 ± 0.046
298.15 K, x2 = 0 | 908.96 ± 1.1 | 3.455 ± 0.074
298.15 K, x2 = 0.0993 | 917.77 ± 1.1 | 3.039 ± 0.065
298.15 K, x2 = 0.1972 | 925.12 ± 1.1 | 2.734 ± 0.058
298.15 K, x2 = 0.3008 | 931.86 ± 1.1 | 2.49 ± 0.053
298.15 K, x2 = 0.3978 | 937.67 ± 1.1 | 2.313 ± 0.049
298.15 K, x2 = 0.4986 | 943.05 ± 1.1 | 2.173 ± 0.046
298.15 K, x2 = 0.6031 | 948.12 ± 1.1 | 2.068 ± 0.044
298.15 K, x2 = 0.7031 | 952.59 ± 1.1 | 1.997 ± 0.042
298.15 K, x2 = 0.7981 | 956.53 ± 1.1 | 1.963 ± 0.042
298.15 K, x2 = 0.901 | 960.66 ± 1.1 | 1.952 ± 0.041
303.15 K, x2 = 0 | 904.87 ± 1.1 | 3.009 ± 0.064
303.15 K, x2 = 0.0993 | 913.62 ± 1.1 | 2.656 ± 0.057
303.15 K, x2 = 0.1972 | 920.94 ± 1.1 | 2.402 ± 0.051
303.15 K, x2 = 0.3008 | 927.67 ± 1.1 | 2.2 ± 0.047
303.15 K, x2 = 0.3978 | 933.47 ± 1.1 | 2.053 ± 0.044
303.15 K, x2 = 0.4986 | 938.85 ± 1.1 | 1.94 ± 0.041
303.15 K, x2 = 0.6031 | 943.94 ± 1.1 | 1.855 ± 0.039
303.15 K, x2 = 0.7031 | 948.44 ± 1.1 | 1.8 ± 0.038
303.15 K, x2 = 0.7981 | 952.41 ± 1.1 | 1.774 ± 0.038
303.15 K, x2 = 0.901 | 956.59 ± 1.1 | 1.77 ± 0.038
308.15 K, x2 = 0 | 900.74 ± 1.1 | 2.635 ± 0.056
308.15 K, x2 = 0.0993 | 909.43 ± 1.1 | 2.338 ± 0.05
308.15 K, x2 = 0.1972 | 916.73 ± 1.1 | 2.123 ± 0.045
308.15 K, x2 = 0.3008 | 923.44 ± 1.1 | 1.958 ± 0.042
308.15 K, x2 = 0.3978 | 929.24 ± 1.1 | 1.836 ± 0.039
308.15 K, x2 = 0.4986 | 934.63 ± 1.1 | 1.747 ± 0.037
308.15 K, x2 = 0.6031 | 939.74 ± 1.1 | 1.675 ± 0.036
308.15 K, x2 = 0.7031 | 944.26 ± 1.1 | 1.633 ± 0.035
308.15 K, x2 = 0.7981 | 948.28 ± 1.1 | 1.613 ± 0.034
308.15 K, x2 = 0.901 | 952.52 ± 1.1 | 1.618 ± 0.034
313.15 K, x2 = 0 | 896.59 ± 1.1 | 2.321 ± 0.049
313.15 K, x2 = 0.0993 | 905.22 ± 1.1 | 2.068 ± 0.044
313.15 K, x2 = 0.1972 | 912.49 ± 1.1 | 1.889 ± 0.04
313.15 K, x2 = 0.3008 | 919.19 ± 1.1 | 1.754 ± 0.037
313.15 K, x2 = 0.3978 | 925 ± 1.1 | 1.651 ± 0.035
313.15 K, x2 = 0.4986 | 930.4 ± 1.1 | 1.579 ± 0.034
313.15 K, x2 = 0.6031 | 935.53 ± 1.1 | 1.521 ± 0.032
313.15 K, x2 = 0.7031 | 940.09 ± 1.1 | 1.491 ± 0.032
313.15 K, x2 = 0.7981 | 944.15 ± 1.1 | 1.474 ± 0.031
313.15 K, x2 = 0.901 | 948.45 ± 1.1 | 1.485 ± 0.032
318.15 K, x2 = 0 | – | 2.054 ± 0.044
318.15 K, x2 = 0.0993 | – | 1.84 ± 0.039
318.15 K, x2 = 0.1972 | – | 1.688 ± 0.036
318.15 K, x2 = 0.3008 | – | 1.577 ± 0.034
318.15 K, x2 = 0.3978 | – | 1.492 ± 0.032
318.15 K, x2 = 0.4986 | – | 1.433 ± 0.031
318.15 K, x2 = 0.6031 | – | 1.387 ± 0.03
318.15 K, x2 = 0.7031 | – | 1.366 ± 0.029
318.15 K, x2 = 0.7981 | – | 1.355 ± 0.029
318.15 K, x2 = 0.901 | – | 1.369 ± 0.029
